The source of these data is paper PMC10002963, “[4+2]-Cycloaddition to 5-Methylidene-Hydantoins and 5-Methylidene-2-Thiohydantoins in the Synthesis of Spiro-2-Chalcogenimidazolones” (International Journal of Molecular Sciences, 2023).

The structures appear in SMILES notation. Values after ≈ are worked out from the molar mass of the structure shown. Read-outs that look alike come from different tables or passages of the source.

One test deals with HEK293T cell line. The test is described as follows: MTT cytotoxicity assay, HEK293T. It counts as cell-based, human. The note with it: 65-h treatment, Cmax 100 µM, read-out: IC50abs. As to the method:
(§1) Some of the obtained spiro-derivatives were tested for cytotoxicity using the standard MTT assay. Cytotoxicity was evaluated using the cell lines of various etiologies: breast cancer MCF7, human lung carcinoma A549, non-cancer human embryonic kidney cell line HEK293T, and non-cancer lung fibroblast VA13 cell line. Lung cancers and breast cancers are among the most common causes of tumor lesions and related death in the world, and non-cancerous cells were applied for the specificity of action evaluation. The results are shown in Table 5; the dose-response dependency graphs are available in Supplementary Information.
(§2) Cell cultures. Human embryonic kidney HEK293T cell line was kindly provided by Dr. E. Knyazhanskaya; immortalized human fibroblasts cell line VA13 was kindly provided by Dr. M. Rubtsova; human breast cancer cell line MCF7 and human lung adenocarcinoma cell line A549 were kindly provided by Dr. S. Dmitriev. MCF7, VA13, A549, and HEK293T cell lines were maintained in DMEM/F-12 (Thermo Fisher Scientific, Waltham, Massachusetts, USA) culture medium containing 10% fetal bovine serum (Thermo Fisher Scientific, Waltham, Massachusetts, USA) and 50 µg/mL penicillin and 0.05 mg/mL streptomycin at 37°C (Thermo Fisher Scientific, Waltham, Massachusetts, USA) in 5% CO2. Cells were maintained at 37°C in a humidified incubator MCO-18AC (Sanyo, Japan) supplied with 5% CO2. Cell cultures were tested for the absence of mycoplasma.
(§3) In Vitro Survival Assay (MTT Assay). The cytotoxicity was tested using the MTT (3-(4,5-dimethylthiazol-2-yl)2,5-diphenyl tetrazolium bromide) assay with some modifications. A total of 2500 cells per well for the MCF7, HEK293T cell lines, 3000 cells for the A549 cell line, or 4000 cells per well for the VA-13 cell line were plated out in 135 µL of DMEM-F12 media (Gibco, USA) in a 96-well plate and then incubated in the 5% CO2 incubator for first 20 h without treating. After this, 15 µL of media-DMSO solutions of tested substances were added to the cells (final DMSO concentrations in the media were 0,5% or less) and treated for65 h with 45 nM–100 µM (eight dilutions) of our substances (triplicate each) and doxorubicin as a control substance. Then the MTT reagent (Paneco LLC, Moscow, Russia) was added to cells up to the final concentration of 0.5 g/L (10 × stock solution in PBS was used), and cells were incubated for 2 h at 37 °C under an atmosphere of 5% CO2. Then the MTT solution was discarded, and 140 µL of DMSO (PharmaMed LLC, Russia) was added. The plates were swayed on a shaker (200 rpm) to dissolve the formazan. The absorbance was measured using a microplate reader (VICTOR ×5 Light Plate Reader, PerkinElmer, USA) at a wavelength of 555 nm (in order to measure formazan concentration). The results were used to construct dose-response graphs and to estimate IC50absvalues (IC50abs is the concentration resulting in a two-fold decrease in the number of cells in comparison with the untreated cells) and, in some cases, IC50 values (IC50 is the concentration resulting in half of the maximal cytotoxic effect) with GraphPadSoftware, Inc., San Diego, CA, USA.

A further test has as its system MCF7 cell line. The test is described as follows: MTT cytotoxicity assay, MCF7. Type of test: cell-based, human. As to conditions: MCF7, 65-h treatment, MTT, Cmax 100 µM, read-out: IC50abs. As to the method: as §1, §2, §3
In a further test the test system is VA13 cell line. The test is described as follows: MTT cytotoxicity assay, VA13. It counts as cell-based, human. As to conditions: VA13, 65-h treatment, MTT, Cmax 100 µM, read-out: IC50abs. The method, then: as §1, §2, §3
The next test relates to A549 cell line. The test is described as follows: MTT cytotoxicity assay, A549. It counts as cell-based, human. As to conditions: A549, 65-h treatment, MTT, Cmax 100 µM, read-out: IC50abs. As to the method:
as §1, §2, §3

A further test deals with E. coli BW25113 DTC. The test is described as follows: Minimal inhibitory concentration, E. coli BW25113 DTC. Type of test: cell-based, Escherichia coli. As to the method: (§4) Then the minimal inhibitory concentration (MIC) was measured for E. coli BW25113 DTC and E. coli K-12 (WT) for the 12 most bacteriotoxic compounds from the plate test.
(§5) Determination of Minimal Inhibitory Concentration (MIC). MIC values were determined by monitoring growth in 96-well plates of E. coli cultures exposed to serial dilutions of compounds. Specifically, overnight E. coli BW25113 DTC and K12 cultures were diluted in 96-well plates to an OD590 of 0.01 in LB medium. The wells were then supplemented with the solution of each tested compound at concentrations of 1 mM, 500 µM, 250 µM, 125 µM, 62.5 µM, 31.25 µM, 15.63 µM, 7.81 µM, 3.91 µM, and 1.95 µM. Then the plates were incubated with shaking (200 r.p.m.) overnight at 37°C, and cell growth was assessed by scanning OD590 each well with a VictorX5 reader.

The subject of a further test is E. coli K-12 (WT). The test is described as follows: Minimal inhibitory concentration, E. coli K-12. Type of test: cell-based, Escherichia coli. As to conditions: LB medium, overnight 37°C, >1000 = inactive in this test. As to the method: as §4, §5

In the case of `O=C1N[C@@]2(C[C@@H]3C=C[C@H]2C3)C(=O)N1c1ccccc1` [Compound 28a], the IC50 with HEK293T cell line (Homo sapiens, HEK-293T) was more than 100 µM; in the test with MCF7 cell line (Homo sapiens), more than 100 µM; in the test on VA13 cell line (Homo sapiens, VA-13), more than 100 µM; in the test with A549 cell line (Homo sapiens) it was more than 100 µM. In addition, the MIC against E. coli BW25113 DTC (Escherichia coli, BW25113) is more than 1000 µM; with E. coli K-12 (WT) (Escherichia coli), more than 1000 µM.

As for `CSC1=NC2(CC3C=CC2C3)C(=O)N1c1ccccc1` (stereo not drawn) [Compound 72], the IC50 in the test with HEK293T cell line (Homo sapiens, HEK-293T) was 60.1 ± 3.4 µM; with MCF7 cell line (Homo sapiens) it was more than 100 µM; in the test on VA13 cell line (Homo sapiens, VA-13), more than 100 µM; in the test on A549 cell line (Homo sapiens) it was more than 100 µM. For the same compound, the MIC is 500 µM (≈ 142 µg/mL) against E. coli BW25113 DTC (Escherichia coli, BW25113) and more than 1000 µM against E. coli K-12 (WT) (Escherichia coli).

In the case of `O=C1N(c2ccccc2F)C(=S)NC12CC1C=CC2C1` (stereo not drawn) [Compound 35b], the IC50 with HEK293T cell line is 87.4 ± 9.9 µM; in the test with MCF7 cell line, more than 100 µM; in the test on VA13 cell line it was more than 100 µM; with A549 cell line, more than 100 µM. The MIC is listed as 1000 µM (≈ 288 µg/mL) against E. coli BW25113 DTC (E. coli BW25113 DTC, LB medium, overnight 37°C, >1000 = inactive in this test) and more than 1000 µM with E. coli K-12 (WT).
